Assay results: patent US20230085307A1, “PYRIDAZINONE COMPOUND AND HERBICIDE” (NISSAN CHEMICAL CORPORATION, priority 2019, published 2023)

What was measured:
blackgrass [1] = experiment: Test Example 4: herbicidal effect by soil treatment (Table 19, symbol J); format: in vivo, blackgrass (Alopecurus myosuroides); details: amount of applied herbicide 320 g/ha
Outline: (§1)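 Pre-emergence style soil spray: seeds under ~1.5 cm sterilized diluvial soil received a uniform coat of emulsion diluted to the predetermined herbicide amount. Greenhouse 25–30° C; readout at week three on previously defined criteria.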

redroot pigweed [2] = experiment: Test Example 4: herbicidal effect by soil treatment (Table 19, symbol N); format: in vivo, redroot pigweed (Amaranthus retroflexus); details: amount of applied herbicide 320 g/ha
Outline: as §1

windgrass [3] = experiment: Test Example 4: herbicidal effect by soil treatment (Table 19, symbol L); format: in vivo, windgrass (Apera spica-venti); details: amount of applied herbicide 320 g/ha
Outline: as §1

green foxtail [4] = experiment: Test Example 4: herbicidal effect by soil treatment (Table 19, symbol G); format: in vivo, green foxtail (Setaria viridis); details: amount of applied herbicide 320 g/ha
Outline: as §1

false cleavers = experiment: Test Example 4: herbicidal effect by soil treatment (Table 19, symbol Q); format: in vivo, false cleavers (Galium spurium); details: amount of applied herbicide 320 g/ha
Outline: as §1

lambsquarters [5] = experiment: Test Example 5: herbicidal effect by foliage application, plastic box (Table 20, symbol O); format: in vivo, lambsquarters (Chenopodium album); details: foliage application, 320 g/ha, three weeks after application
Outline: (§2)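 Plants were sown into sterilized diluvial soil under about 1.5 cm cover and kept in a greenhouse at 25° C. to 30° C. Fourteen days on, foliage received an even spray of the diluted emulsion. Herbicidal or crop effect was judged three weeks afterwards.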

barnyard grass [6] = experiment: Test Example 4: herbicidal effect by soil treatment (Table 19, symbol H); format: in vivo, barnyard grass (Echinochloa crus-galli); details: amount of applied herbicide 320 g/ha
Outline: as §1

lambsquarters [7] = experiment: Test Example 4: herbicidal effect by soil treatment (Table 19, symbol O); format: in vivo, lambsquarters (Chenopodium album); details: amount of applied herbicide 320 g/ha
Outline: as §1

velvetleaf [8] = experiment: Test Example 5: herbicidal effect by foliage application, plastic box (Table 20, symbol M); format: in vivo, velvetleaf (Abutilon theophrasti); details: foliage application, 320 g/ha, three weeks after application
Outline: as §2

barnyard grass [9] = experiment: Test Example 5: herbicidal effect by foliage application, plastic box (Table 20, symbol H); format: in vivo, barnyard grass (Echinochloa crus-galli); details: foliage application, 320 g/ha, three weeks after application
Outline: as §2

Italian ryegrass [10] = experiment: Test Example 5: herbicidal effect by foliage application, plastic box (Table 20, symbol K); format: in vivo, Italian ryegrass (Lolium multiflorum); details: foliage application, 320 g/ha, three weeks after application
Outline: as §2

chickweed [11] = experiment: Test Example 4: herbicidal effect by soil treatment (Table 19, symbol P); format: in vivo, common chickweed (Stellaria media); details: amount of applied herbicide 320 g/ha
Outline: as §1

windgrass [12] = experiment: Test Example 5: herbicidal effect by foliage application, plastic box (Table 20, symbol L); format: in vivo, windgrass (Apera spica-venti); details: foliage application, 320 g/ha, three weeks after application
Outline: as §2

chickweed [13] = experiment: Test Example 5: herbicidal effect by foliage application, plastic box (Table 20, symbol P); format: in vivo, common chickweed (Stellaria media); details: foliage application, 320 g/ha, three weeks after application
Outline: as §2

Chinese sprangletop = experiment: Test Example 3: herbicidal effect by foliage application, Wagner pot (Table 18, symbol D); format: in vivo, chinese sprangletop (Leptochloa chinensis)
Outline: (§3)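 Plants were sown in alluvial soil held under 0.1–0.5 cm standing water and grown 14 days in a greenhouse at 25–30 °C. An emulsifiable formulation, water-diluted to the set dose, was then sprayed onto the foliage, and effects were scored three weeks later using previously defined criteria.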

persian speedwell [14] = experiment: Test Example 5: herbicidal effect by foliage application, plastic box (Table 20, symbol R); format: in vivo, Persian speedwell (Veronica persica); details: foliage application, 320 g/ha, three weeks after application
Outline: as §2

southern crabgrass [15] = experiment: Test Example 5: herbicidal effect by foliage application, plastic box (Table 20, symbol F); format: in vivo, southern crabgrass (Digitaria ciliaris); details: foliage application, 320 g/ha, three weeks after application
Outline: as §2

redroot pigweed [16] = experiment: Test Example 5: herbicidal effect by foliage application, plastic box (Table 20, symbol N); format: in vivo, redroot pigweed (Amaranthus retroflexus); details: foliage application, 320 g/ha, three weeks after application
Outline: as §2

blackgrass [17] = experiment: Test Example 5: herbicidal effect by foliage application, plastic box (Table 20, symbol J); format: in vivo, blackgrass (Alopecurus myosuroides); details: foliage application, 320 g/ha, three weeks after application
Outline: as §2

persian speedwell [18] = experiment: Test Example 4: herbicidal effect by soil treatment (Table 19, symbol R); format: in vivo, Persian speedwell (Veronica persica); details: amount of applied herbicide 320 g/ha
Outline: as §1

Italian ryegrass [19] = experiment: Test Example 4: herbicidal effect by soil treatment (Table 19, symbol K); format: in vivo, Italian ryegrass (Lolium multiflorum); details: amount of applied herbicide 320 g/ha
Outline: as §1

barnyard grass [20] = experiment: Test Example 3: herbicidal effect by foliage application, Wagner pot (Table 18, symbol H); format: in vivo, barnyard grass (Echinochloa crus-galli)
Outline: as §3

southern crabgrass [21] = experiment: Test Example 4: herbicidal effect by soil treatment (Table 19, symbol F); format: in vivo, southern crabgrass (Digitaria ciliaris); details: amount of applied herbicide 320 g/ha
Outline: as §1

green foxtail [22] = experiment: Test Example 5: herbicidal effect by foliage application, plastic box (Table 20, symbol G); format: in vivo, green foxtail (Setaria viridis); details: foliage application, 320 g/ha, three weeks after application
Outline: as §2

rice flat sedge = experiment: Test Example 3: herbicidal effect by foliage application, Wagner pot (Table 18, symbol E); format: in vivo, rice flat sedge (Cyperus iria)
Outline: as §3

velvetleaf [23] = experiment: Test Example 4: herbicidal effect by soil treatment (Table 19, symbol M); format: in vivo, velvetleaf (Abutilon theophrasti); details: amount of applied herbicide 320 g/ha
Outline: as §1

wild oat [24] = experiment: Test Example 5: herbicidal effect by foliage application, plastic box (Table 20, symbol I); format: in vivo, wild oat (Avena fatua); details: foliage application, 320 g/ha, three weeks after application
Outline: as §2

wild oat [25] = experiment: Test Example 4: herbicidal effect by soil treatment (Table 19, symbol I); format: in vivo, wild oat (Avena fatua); details: amount of applied herbicide 320 g/ha
Outline: as §1

[26] = amount of applied herbicide 320 g/ha

CC(=O)CSc1ccc(-c2sc3ccc(F)cc3c2-c2c(O)c(C)nn(C)c2=O)cc1 [2-424]
herbicidal effect, J: blackgrass (blackgrass [1]): 0 (Herbicidal rate of 5% or less (almost no effect)) | herbicidal effect, N: redroot pigweed (redroot pigweed [2]): 4 (Herbicidal rate of 70% or more and less than 90%) | herbicidal effect, L: windgrass (windgrass [3]): 0 (Herbicidal rate of 5% or less (almost no effect)) | herbicidal effect, G: green foxtail (green foxtail [4]): 0 (Herbicidal rate of 5% or less (almost no effect)) | herbicidal effect, Q: false cleavers (false cleavers): 0 (Herbicidal rate of 5% or less (almost no effect)) | O: lambsquarters, herbicidal effect grade (lambsquarters [5]): 3 (Herbicidal rate of 40% or more and less than 70%) | herbicidal effect, H: barnyard grass (barnyard grass [6]): 0 (Herbicidal rate of 5% or less (almost no effect)) | herbicidal effect, O: lambsquarters (lambsquarters [7]): 3 (Herbicidal rate of 40% or more and less than 70%) | M: velvetleaf, herbicidal effect grade (velvetleaf [8]): 3 (Herbicidal rate of 40% or more and less than 70%) | H: barnyard grass, herbicidal effect grade (barnyard grass [9]): 5 (Herbicidal rate of 90% or more (almost completely withered)) | K: Italian ryegrass, herbicidal effect grade (Italian ryegrass [10]): 1 (Herbicidal rate of 5% or more and less than 20%) | herbicidal effect, P: chickweed (chickweed [11]): 0 (Herbicidal rate of 5% or less (almost no effect)) | L: windgrass, herbicidal effect grade (windgrass [12]): 4 (Herbicidal rate of 70% or more and less than 90%) | P: chickweed, herbicidal effect grade (chickweed [13]): 5 (Herbicidal rate of 90% or more (almost completely withered)) | herbicidal effect on D: Chinese sprangletop (Chinese sprangletop; [26]): 3 (Herbicidal rate of 40% or more and less than 70%) | R: persian speedwell, herbicidal effect grade (persian speedwell [14]): 4 (Herbicidal rate of 70% or more and less than 90%) | F: southern crabgrass, herbicidal effect grade (southern crabgrass [15]): 3 (Herbicidal rate of 40% or more and less than 70%) | N: redroot pigweed, herbicidal effect grade (redroot pigweed [16]): 5 (Herbicidal rate of 90% or more (almost completely withered)) | J: blackgrass, herbicidal effect grade (blackgrass [17]): 3 (Herbicidal rate of 40% or more and less than 70%) | herbicidal effect, R: persian speedwell (persian speedwell [18]): 0 (Herbicidal rate of 5% or less (almost no effect)) | herbicidal effect, K: Italian ryegrass (Italian ryegrass [19]): 0 (Herbicidal rate of 5% or less (almost no effect)) | herbicidal effect on H: barnyard grass (barnyard grass [20]; [26]): 5 (Herbicidal rate of 90% or more (almost completely withered)) | herbicidal effect, F: southern crabgrass (southern crabgrass [21]): 0 (Herbicidal rate of 5% or less (almost no effect)) | G: green foxtail, herbicidal effect grade (green foxtail [22]): 3 (Herbicidal rate of 40% or more and less than 70%) | herbicidal effect on E: rice flat sedge (rice flat sedge; [26]): 4 (Herbicidal rate of 70% or more and less than 90%) | herbicidal effect, M: velvetleaf (velvetleaf [23]): 2 (Herbicidal rate of 20% or more and less than 40%) | I: wild oat, herbicidal effect grade (wild oat [24]): 4 (Herbicidal rate of 70% or more and less than 90%) | herbicidal effect, I: wild oat (wild oat [25]): 0 (Herbicidal rate of 5% or less (almost no effect))

Cc1nn(C)c(=O)c(-c2c(-c3ccc(OC(F)(F)F)cc3)sc3cc(F)ccc23)c1O [3-143]
Herbicidal effect by soil treatment, J: blackgrass (blackgrass [1]): 0 (Herbicidal rate of 5% or less (almost no effect)) | Herbicidal effect by soil treatment, N: redroot pigweed (redroot pigweed [2]): 4 (Herbicidal rate of 70% or more and less than 90%) | Herbicidal effect by soil treatment, L: windgrass (windgrass [3]): 4 (Herbicidal rate of 70% or more and less than 90%) | Herbicidal effect by soil treatment, G: green foxtail (green foxtail [4]): 2 (Herbicidal rate of 20% or more and less than 40%) | Herbicidal effect by soil treatment, Q: false cleavers (false cleavers): 3 (Herbicidal rate of 40% or more and less than 70%) | O: lambsquarters, herbicidal effect grade (lambsquarters [5]): 5 (Herbicidal rate of 90% or more (almost completely withered)) | Herbicidal effect by soil treatment, H: barnyard grass (barnyard grass [6]): 0 (Herbicidal rate of 5% or less (almost no effect)) | Herbicidal effect by soil treatment, O: lambsquarters (lambsquarters [7]): 4 (Herbicidal rate of 70% or more and less than 90%) | M: velvetleaf, herbicidal effect grade (velvetleaf [8]): 5 (Herbicidal rate of 90% or more (almost completely withered)) | H: barnyard grass, herbicidal effect grade (barnyard grass [9]): 4 (Herbicidal rate of 70% or more and less than 90%) | K: Italian ryegrass, herbicidal effect grade (Italian ryegrass [10]): 5 (Herbicidal rate of 90% or more (almost completely withered)) | Herbicidal effect by soil treatment, P: chickweed (chickweed [11]): 0 (Herbicidal rate of 5% or less (almost no effect)) | L: windgrass, herbicidal effect grade (windgrass [12]): 5 (Herbicidal rate of 90% or more (almost completely withered)) | P: chickweed, herbicidal effect grade (chickweed [13]): 5 (Herbicidal rate of 90% or more (almost completely withered)) | herbicidal effect on Chinese sprangletop (D) (Chinese sprangletop; 320 g/ha): 4 (Herbicidal rate of 70% or more and less than 90%) | R: persian speedwell, herbicidal effect grade (persian speedwell [14]): 5 (Herbicidal rate of 90% or more (almost completely withered)) | F: southern crabgrass, herbicidal effect grade (southern crabgrass [15]): 1 (Herbicidal rate of 5% or more and less than 20%) | N: redroot pigweed, herbicidal effect grade (redroot pigweed [16]): 5 (Herbicidal rate of 90% or more (almost completely withered)) | J: blackgrass, herbicidal effect grade (blackgrass [17]): 5 (Herbicidal rate of 90% or more (almost completely withered)) | Herbicidal effect by soil treatment, R: persian speedwell (persian speedwell [18]): 3 (Herbicidal rate of 40% or more and less than 70%) | Herbicidal effect by soil treatment, K: Italian ryegrass (Italian ryegrass [19]): 0 (Herbicidal rate of 5% or less (almost no effect)) | herbicidal effect on barnyard grass (H) (barnyard grass [20]; 320 g/ha): 5 (Herbicidal rate of 90% or more (almost completely withered)) | Herbicidal effect by soil treatment, F: southern crabgrass (southern crabgrass [21]): 0 (Herbicidal rate of 5% or less (almost no effect)) | G: green foxtail, herbicidal effect grade (green foxtail [22]): 4 (Herbicidal rate of 70% or more and less than 90%) | herbicidal effect on rice flat sedge (E) (rice flat sedge; 320 g/ha): 5 (Herbicidal rate of 90% or more (almost completely withered)) | Herbicidal effect by soil treatment, M: velvetleaf (velvetleaf [23]): 0 (Herbicidal rate of 5% or less (almost no effect)) | I: wild oat, herbicidal effect grade (wild oat [24]): 0 (Herbicidal rate of 5% or less (almost no effect)) | Herbicidal effect by soil treatment, I: wild oat (wild oat [25]): 0 (Herbicidal rate of 5% or less (almost no effect))
